Assay results from article PMC11220827 (Frontiers in Pharmacology, 2024).
Like-named read-outs stand apart in the source and are kept apart here.

Legend:
HepaRG cells = experiment: Transcriptomics (TempO-Seq, BMD analysis) in HepaRG cells; format: cell-based
Protocol: These differed with respect to the number of genes passing all filters in each pathway (3 versus 5 genes). […] Therefore, we captured pathways which fulfilled both criteria.
HepG2 (human hepatoblastoma) , MCF-7 (human breast adenocarcinoma) cells supplied by
Public Health England European Collection of Cell Cultures (ECACC, Salisbury, UK). Differentiated
HepaRG cells (HPR116, Lot HPR116239 -TA08) were from Biopredic International (Rennes, France).
Test chemicals were prepared in DMSO as serial dilutions, resulting in concentrations in media of
biological replicates were treated with the appropriate dose of co mpound for 24 h prior to cell lysis.
Biospyder human whole genome panel version 1 (https://biospyder.com).
Gene normalization and analysis
expression values for each probe were normalized by applying DESEQ2 normalization. A pseudo-
read-count of 1.0 was added to each normalized expression value, and then the values were log2
transformed . Analyses performed included Gene and Pathway, Dose Response and Network
monotonic increasing/decreasing trend were those which confirmed to the criteria : William’s trend
Those genes were then used in categorical (pathway) analysis for the Gene Ontology (GO) terms and
REACTOME pathways. Significant dose responsive pathways were determined according to : Fisher’s

ER = tested on: ER; design: method as in Opera; conditions: experimental call listed in the Opera output; ref Opera; cited from earlier work
MAO-A = target: T1, MAO-A (Rattus norvegicus, UniProt P21396); experiment: Pharmacology profiling: MAO-A (antagonist RL); format: binding; conditions: read-out: MAO-A (antagonist RL): % inhibition @10 µM
T1 sequence (P21396 1-526): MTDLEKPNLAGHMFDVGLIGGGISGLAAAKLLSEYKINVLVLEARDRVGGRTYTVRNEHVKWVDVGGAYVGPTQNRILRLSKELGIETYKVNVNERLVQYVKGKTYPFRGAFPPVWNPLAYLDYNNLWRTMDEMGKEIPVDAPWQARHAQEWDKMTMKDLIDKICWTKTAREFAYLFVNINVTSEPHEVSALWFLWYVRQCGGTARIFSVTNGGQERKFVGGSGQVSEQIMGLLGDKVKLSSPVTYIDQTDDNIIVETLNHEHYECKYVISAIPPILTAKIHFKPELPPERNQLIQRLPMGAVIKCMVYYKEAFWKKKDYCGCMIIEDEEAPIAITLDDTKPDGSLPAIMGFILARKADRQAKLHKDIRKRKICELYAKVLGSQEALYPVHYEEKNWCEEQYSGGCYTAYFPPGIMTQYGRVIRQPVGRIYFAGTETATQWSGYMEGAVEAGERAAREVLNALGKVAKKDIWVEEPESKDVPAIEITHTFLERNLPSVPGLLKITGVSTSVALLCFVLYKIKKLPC
Excerpt: (§10) targets. The list of targets included the original panel of 44 targets (including receptors, ion channels,
(§11) transporters and enzymes) recommended by 4 major pharmaceutical companies as significant
(§12) reasoned to link to pathological effects. Results showing an inhibition or stimulation higher than 50%
(§13) are considered to represent significant effects (i.e. a “hit”).
(§14) and 50% are indicative of weak to moderate effects and results showing an inhibition (or stimulation)
(§15) around the control level. For several targets, additional concentration effect assays were conducted to
(§16) determine the potency (IC50). The concentrations tested (in duplicate) ranged between 30 nM and 100

PDE4D2 (h) = PDE4D2 (h) (Homo sapiens, UniProt Q08499); experiment: Pharmacology profiling: PDE4D2 (h) (phosphodiesterase 4D); format: biochemical
Excerpt: (§1) Cosmetics Europe’s Systemic Toxicity Taskforce (SysTox-TF) has extended the list of targets in an in vitro screen originally described by [Bowes et al. (2012)] to assess the effects of cosmetic chemicals on target molecules. The approach was based on the knowledge that various targets of pharmacological interest have been linked to human adverse drug reactions, and that screening of these has helped the pharma industry in identifying drug candidates with acceptable human safety profiles ([Bowes et al., 2012]; [Scott et al., 2022]). The methods used by the pharma industry were adapted for use in cosmetic chemical NGRA. A final list of 83 target assays were considered suitable for cosmetic chemical safety testing (see Supplementary Materials S1.7). The targets were receptors, ion channels, transporters and enzymes identified by the pharma industry as linked to human adverse drug reactions, supplemented by additional targets that have been reasoned to be linked to systemic toxicities of chemicals in animals. Chemicals that are flagged for a target are tested in follow-up dose-response assays to establish potency of the interaction. […]. [Valentin et al., 2018]; [Dodson et al., 2021]). […].
(§2) assay’s reference compound was set to 100%. For antagonist assays, the basal signal (exposure to fixed concentration of agonist only) was set to 100%. Activity of the samples was scaled accordingly, […]
(§3) Using these graphs, lowest […]
(§4) compound activity for antagonist assays.
(§5) S1.7. Pharmacology profiling assays […]
(§6) reasoned to link to pathological effects. […]
(§7) around the control level. […]
(§8) determine the potency (IC50).
(§9) Supplementary Table S4 Pharmacology profiling assay panel. […]

[1] = format: in vitro ADME; conditions: 3 nmol/cm^2 in the body lotion formulation
Excerpt: Additional information was required to determine whether an adjustment factor was needed to account for a difference in the absorption of daidzein after topical application and whether the absorption was impacted by the use of the intended (body lotion base) formulation. […]. […] […]. The results of this study are described in detail by [Géniès et al. (2024)] and are summarized here.

Estrogen pathway = tested on: Estrogen pathway; design: method as in ToxCast; conditions: ref ToxCast; read-out: Estrogen pathway: Receptor binding, AC50; cited from earlier work
Aromatase = tested on: Aromatase; design: method as in ToxCast; conditions: ref ToxCast; cited from earlier work; further: key: Pos = positive result; Neg = negative result; Inc = uncertain/inconclusive result
COX1 (h) = COX1 (h) (Homo sapiens, UniProt P23219); experiment: Pharmacology profiling: COX1 (h); format: biochemical
Excerpt: as §10, §11, §12, §13, §14, §15, §16

5-HT2B (h) = 5-HT2B (h) (Homo sapiens, UniProt P41595); experiment: Pharmacology profiling: 5-HT2B (h) (agonist RL); format: binding
Excerpt: as §1, §2, §3, §4, §5, §6, §7, §8, §9

Thyroid peroxidase = tested on: Thyroid peroxidase; design: method as in ToxCast; conditions: ref ToxCast; cited from earlier work; further: key: Pos = positive result; Neg = negative result; Inc = uncertain/inconclusive result
HepG2 cells = experiment: cells; format: cell-based; conditions: for AC50: Homo sapiens, HepG2, 24 h
[2] = HepaRG, 24 h, pathway differs per chemical

Chain of PDE4D2 (h) (Q08499 303-809): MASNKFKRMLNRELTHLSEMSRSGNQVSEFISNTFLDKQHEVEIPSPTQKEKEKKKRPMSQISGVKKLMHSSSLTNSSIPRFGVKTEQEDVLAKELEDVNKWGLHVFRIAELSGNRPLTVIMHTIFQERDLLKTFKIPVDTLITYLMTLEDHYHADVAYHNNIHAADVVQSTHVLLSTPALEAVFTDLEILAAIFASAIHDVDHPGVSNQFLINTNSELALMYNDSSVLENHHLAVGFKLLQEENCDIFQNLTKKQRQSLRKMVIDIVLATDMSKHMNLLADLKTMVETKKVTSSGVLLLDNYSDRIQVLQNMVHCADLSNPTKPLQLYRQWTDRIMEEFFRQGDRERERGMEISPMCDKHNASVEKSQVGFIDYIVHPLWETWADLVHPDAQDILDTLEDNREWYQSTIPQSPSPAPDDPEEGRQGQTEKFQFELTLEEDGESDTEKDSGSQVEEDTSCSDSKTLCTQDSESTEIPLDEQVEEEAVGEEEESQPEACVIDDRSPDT
Chain of 5-HT2B (h) (P41595 whole entry): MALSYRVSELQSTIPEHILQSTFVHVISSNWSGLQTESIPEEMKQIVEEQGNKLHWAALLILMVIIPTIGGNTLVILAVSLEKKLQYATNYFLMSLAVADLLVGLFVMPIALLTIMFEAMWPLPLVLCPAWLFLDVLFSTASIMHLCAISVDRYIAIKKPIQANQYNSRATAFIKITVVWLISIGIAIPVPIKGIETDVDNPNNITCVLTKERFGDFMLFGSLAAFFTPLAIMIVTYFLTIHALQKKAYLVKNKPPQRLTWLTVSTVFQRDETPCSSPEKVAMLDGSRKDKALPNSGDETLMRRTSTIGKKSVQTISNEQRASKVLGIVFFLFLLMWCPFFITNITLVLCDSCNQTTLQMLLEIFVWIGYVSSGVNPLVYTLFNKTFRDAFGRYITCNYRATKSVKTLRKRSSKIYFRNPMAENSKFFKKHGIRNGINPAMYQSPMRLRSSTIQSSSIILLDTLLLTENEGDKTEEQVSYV
Chain of COX1 (h) (P23219 24-599): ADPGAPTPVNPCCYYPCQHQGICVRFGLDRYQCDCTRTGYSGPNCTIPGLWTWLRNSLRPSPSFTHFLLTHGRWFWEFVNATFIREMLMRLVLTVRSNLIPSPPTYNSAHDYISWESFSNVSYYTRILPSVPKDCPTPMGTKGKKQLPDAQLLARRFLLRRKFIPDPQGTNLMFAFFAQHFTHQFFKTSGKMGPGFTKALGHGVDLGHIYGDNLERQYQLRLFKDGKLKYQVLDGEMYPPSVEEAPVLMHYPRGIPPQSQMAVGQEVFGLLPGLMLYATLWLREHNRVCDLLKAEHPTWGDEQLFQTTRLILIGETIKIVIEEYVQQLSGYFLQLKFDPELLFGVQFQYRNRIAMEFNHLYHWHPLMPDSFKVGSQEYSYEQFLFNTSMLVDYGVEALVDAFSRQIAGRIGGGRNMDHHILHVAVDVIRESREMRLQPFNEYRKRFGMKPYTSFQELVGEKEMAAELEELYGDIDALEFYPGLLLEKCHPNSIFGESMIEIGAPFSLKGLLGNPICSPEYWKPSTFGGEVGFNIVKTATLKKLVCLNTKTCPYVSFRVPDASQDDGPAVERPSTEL
Protocol for U2-OS cells: using the U2-OS based CALUX cytotox bioassay. The cytotoxicity of each test chemical was assessed using the U2-OS based cytotoxicity CALUX bioassay. Concentrations causing >20% reduction of luminescence were considered cytotoxic.
cytotoxicity (relative induction in the cytotoxicity CALUX bioassay > 80%) were used for final
evaluation of analysis results.
induction in the cytotox CALUX bioassay > 80%) were used for final evaluation of analysis results.
All analysis results were expressed in molar (M) final in well.
For the analyses in the presence of rat liver S9, 0.03% (v/v) of PB/BNF induced rat liver
S9 mix (including NADPH and an NADPH-regenerating system) was added to the cells directly after
addition of the compounds, which remained there for the duration of the exposure period (24 h) (van

O=c1c(-c2ccc(O)cc2)coc2cc(O)cc(O)c12 [Genistein, 5,7-DIHYDROXY-3-(4-HYDROXYPHENYL)-4-BENZOPYRONE]
BMD/NOEC, gene pathway deregulation (HepaRG cells; HepaRG cells): 40.0 nM | Lowest median BMD, 3 genes passing all filters (HepaRG cells; [2]): 0.040 µM | Lowest median BMD, >5 genes passing all filters (HepaRG cells; [2]): 0.051 µM | BMD relating to estrogen effects (HepaRG cells; HepaRG, 24 h, pathway named in the cell): 0.11- Estrogen-dependent gene expression ↑ µM | ER agonist, Experimental (ER): Active (medium) | ER antagonist, Experimental (ER): Active (weak) | ER binding, Experimental (ER): Active (medium) | inhibition at 10 µM (MAO-A): 86% | IC50 (PDE4D2 (h)): 738 nM | inhibition at 10 µM (PDE4D2 (h); read-out: PDE4D2 (h) (phosphodiesterase 4D): % inhibition @10 µM): 87% | Amount of parent chemical entering the systemic circulation [1]: 7.2 % of the applied dose | AC50 (Estrogen pathway): 10 nM | Steroidogenesis: Aromatase, Call (Aromatase): Neg | IC50 (COX1 (h)): 7.69 µM | IC50 (5-HT2B (h)): 682 nM | inhibition at 10 µM (5-HT2B (h); read-out: 5-HT2B (h) (agonist RL): % inhibition @10 µM): 91.9% | Thyroid pathway: Thyroid peroxidase, Call (Thyroid peroxidase): Pos | Cytotoxicity LOEC, +S9 (U2-OS cells; +S9 (rat liver)): >−5 Log M | Cytotoxicity LOEC, −S9 (U2-OS cells; −S9): >−5 Log M | AhR Translocation: Effect (HepG2 cells): increase | Apoptosis & necrosis: caspase 3/7: Effect (HepG2 cells): increase | Apoptosis & necrosis: cell cycle arrest: Effect (HepG2 cells): decrease | Cellular ATP: Effect (HepG2 cells): decrease | DNA damage: Phospho-p53: Effect (HepG2 cells): increase | DNA damage: p-H2AX: Effect (HepG2 cells): increase | ER stress panel 1: ER integrity: Effect (HepG2 cells): increase | ER stress panel 1: XBP1: Effect (HepG2 cells): increase | ER stress panel 2: CHOP: Effect (HepG2 cells): increase | Inflammation & pH: HIF1α: Effect (HepG2 cells): increase | Inflammation & pH: ICAM-1: Effect (HepG2 cells): increase | Inflammation & pH: intracellular pH: Effect (HepG2 cells): increase | Metal stress: MTF1: Effect (HepG2 cells): decrease | Mitochondrial mass: Effect (HepG2 cells): increase | Mitochondrial membrane potential: Effect (HepG2 cells): decrease | Nuclear size: Effect (HepG2 cells): increase | Osmotic & heat shock: NFAT: Effect (HepG2 cells): increase | Oxidative stress: HMOX1: Effect (HepG2 cells): increase | Oxidative stress: NRF2: Effect (HepG2 cells): increase | Seahorse assay: Extracellular acidification rate (ECAR): Effect (HepG2 cells): decrease | Seahorse assay: oxygen consumption rate (OCR): Effect (HepG2 cells): decrease | Seahorse assay: reserve capacity: Effect (HepG2 cells): decrease | AC50 (HepG2 cells; read-out: AhR Translocation: AC50): > 100 µM | AC50 (HepG2 cells; read-out: Apoptosis & necrosis: caspase 3/7: AC50): > 100 µM | AC50 (HepG2 cells; read-out: Apoptosis & necrosis: cell cycle arrest: AC50): > 100 µM | AC50 (HepG2 cells; read-out: Cellular ATP: AC50): > 100 µM | AC50 (HepG2 cells; read-out: DNA damage: Phospho-p53: AC50): > 100 µM | AC50 (HepG2 cells; read-out: DNA damage: p-H2AX: AC50): > 100 µM | AC50 (HepG2 cells; read-out: ER stress panel 1: ER integrity: AC50): > 100 µM | AC50 (HepG2 cells; read-out: ER stress panel 1: XBP1: AC50): 40.4 µM | AC50 (HepG2 cells; read-out: ER stress panel 2: CHOP: AC50): > 100 µM | AC50 (HepG2 cells; read-out: Inflammation & pH: HIF1α: AC50): > 100 µM | AC50 (HepG2 cells; read-out: Inflammation & pH: ICAM-1: AC50): > 100 µM | AC50 (HepG2 cells; read-out: Inflammation & pH: intracellular pH: AC50): > 100 µM | AC50 (HepG2 cells; read-out: Metal stress: MTF1: AC50): > 100 µM | AC50 (HepG2 cells; read-out: Mitochondrial mass: AC50): > 100 µM | AC50 (HepG2 cells; read-out: Mitochondrial membrane potential: AC50): 69.6 µM | AC50 (HepG2 cells; read-out: Nuclear size: AC50): > 100 µM | AC50 (HepG2 cells; read-out: Osmotic & heat shock: NFAT: AC50): > 100 µM | AC50 (HepG2 cells; read-out: Oxidative stress: HMOX1: AC50): > 100 µM | AC50 (HepG2 cells; read-out: Oxidative stress: NRF2: AC50): > 100 µM | AC50 (HepG2 cells; read-out: Seahorse assay: Extracellular acidification rate (ECAR): AC50): > 100 µM | AC50 (HepG2 cells; read-out: Seahorse assay: oxygen consumption rate (OCR): AC50): > 100 µM | AC50 (HepG2 cells; read-out: Seahorse assay: reserve capacity: AC50): > 100 µM | AhR Translocation: MEC (HepG2 cells; human, 24 h): 51.2 µM | Apoptosis & necrosis: caspase 3/7: MEC (HepG2 cells; human, 24 h): 49.8 µM | Apoptosis & necrosis: cell cycle arrest: MEC (HepG2 cells; human, 24 h): 35.8 µM | Cell stress LOEC, ↓ in mitochondrial membrane potential (HepG2 cells; human, 24 h): 11.6 µM | Cellular ATP: MEC (HepG2 cells; human, 24 h): 31.5 µM | DNA damage: Phospho-p53: MEC (HepG2 cells; human, 24 h): 22.8 µM | DNA damage: p-H2AX: MEC (HepG2 cells; human, 24 h): 13.4 µM | ER stress panel 1: ER integrity: MEC (HepG2 cells; human, 24 h): 23.3 µM | ER stress panel 1: XBP1: MEC (HepG2 cells; human, 24 h): 40.9 µM | ER stress panel 2: CHOP: MEC (HepG2 cells; human, 24 h): 69.0 µM | Inflammation & pH: HIF1α: MEC (HepG2 cells; human, 24 h): 44.8 µM | Inflammation & pH: ICAM-1: MEC (HepG2 cells; human, 24 h): 34.4 µM | Inflammation & pH: intracellular pH: MEC (HepG2 cells; human, 24 h): 50.6 µM | Metal stress: MTF1: MEC (HepG2 cells; human, 24 h): 25.5 µM | Mitochondrial mass: MEC (HepG2 cells; human, 24 h): 15.0 µM | Mitochondrial membrane potential: MEC (HepG2 cells; human, 24 h): 11.6 µM | Nuclear size: MEC (HepG2 cells; human, 24 h): 25.2 µM | Osmotic & heat shock: NFAT: MEC (HepG2 cells; human, 24 h): 49.4 µM | Oxidative stress: HMOX1: MEC (HepG2 cells; human, 24 h): 29.9 µM | Oxidative stress: NRF2: MEC (HepG2 cells; human, 24 h): 29.9 µM | Seahorse assay: Extracellular acidification rate (ECAR): MEC (HepG2 cells; human, 24 h): 27.7 µM | Seahorse assay: oxygen consumption rate (OCR): MEC (HepG2 cells; human, 24 h): 41.5 µM | Seahorse assay: reserve capacity: MEC (HepG2 cells; human, 24 h): 34.8 µM
